Source: patent US20240287062A1, “NAPHTHYRIDONE COMPOUNDS FOR INHIBITION OF RAF KINASES AND/OR BCR-ABL TYROSINE KINASES” (Enliven Inc., priority 2021, published 2024)
Structures can show the parent of a compound that is named as a salt. Where two headings read alike, the source gives them in different places.

Assays:
Type in all cases: cell-based
[1] = system: phosphorylated ERK (pERK); assay: Detection of phosphorylated ERK (pERK), AlphaLISA in A375 cells; conditions: four hours incubation, inhibition of ERK phosphorylation, read-out: PERK ELISA (IC50)
Description: A375 cells were counted and seeded at 10,000 cells/well in 384 well plates (Corning 3764) and allowed to adhere overnight.
Compounds were dissolved and serially diluted in DMSO. The compounds were then added, mixed, and incubated for four hours at 37° C., 5% CO2. Compounds were added using four-fold dilutions at final concentrations ranging from 10 μM to 0.01 nM. DMSO only and 10 uM staurosporine were added as high and low controls.
Following the four-hour incubation with compounds, cell lysates were prepared and AlphaLISA assay measuring phosphorylated ERK was performed. Media was removed using the Apricot Designs pipettor. Lysis buffer was made from 1× AlphaLISA SureFire Assay Kit (AlphaLISA SureFire Ultra pERK 12 (Thr202/Tyr204) ALSU-PERK-A50K) lysis buffer with protease and phosphatase inhibitors. Cells were lysed by adding 10 uL to all the wells and mixed for 40 minutes on a plate shaker. 10 uL cell lysate was transferred to a new Optiplate (PerkinElmer 6007290) and incubated with 5 uL 1× acceptor mix for 2 hours in the dark. 5 uL of 1× donor mix was added to all wells and mixed by shaking followed by overnight incubation in the dark.
pERK AlphaLISA signal was read on the Envision using standard AlphaLISA settings. Percent inhibition of ERK phosphorylation was calculated by % Inhibition=100×(LumHC−LumSample)/(LumHC−LumLC). The low and high controls (LC/HC) are generated from lysate from wells with cells treated with DMSO or […] Staurosporine (BioAustralis, cat #BIA-S1086), […]. IC50 values were calculated by fitting the Curve using XLfit (v5.3.1.3), equation 201: Y=Bottom+(Top−Bottom)/(1+10^((Log IC50−X)*HillSlope)).

A375 (BRAF V600E) = assay: Cell viability assay (CellTiter Glo)
Description: (§1) Cell viability was measured in the following MAPK pathway mutant cancer cell lines: A375 (BRAF V600E), HepG2 (NRAS Q61L), SK-MEL-30 (NRAS Q61K), and OCI-AML-2 (MBNL1-CRAF fusion). Cell viability was also measured in K562 cells.
(§2) A375, HepG2, SK-MEL-30 and OCI-AML-2 cells were grown in the appropriate growth medium as described in Table B2 below, and harvested at 50-80% confluence. Cells were counted and seeded at their appropriate density (see Table B1) in a 384-well plate (Corning 3570). A375, HepG2 and SK-MEL-30 were allowed to adhere overnight prior to treatment and the OCI-AML-2 were treated immediately for the indicated drug treatment times (Table 6).
(§3) Table 6 provides the growth media, number of cells seeded per well and drug treatment times for the each cell line. K562 cells were grown as described in Example B1 above.
(§4) Compounds were dissolved in DMSO and serially diluted. Serially-diluted compound or a DMSO only control (high control, “HC”) was added to the plated cells in each well. Compounds were tested at concentrations of about 10 μM to 0.51 nM, using three-fold dilutions. The final proportion of DMSO never exceeded 0.1%.
(§5) Plates were placed in a 37° C., […] incubator for the indicated treatment times (Table B1). Plates were then removed from the incubator and equilibrated for 15 minutes at room temperature. 40 μl of CellTiter Glo reagent (Promega) was added to measure the relative level of metabolically active cells by quantifying intracellular ATP concentrations. Plates were incubated for 30 minutes at room temperature, and luminescence was measured. Percent viability was normalized to a vehicle control only using the following formula: 0 viability=100×(LumSample−LumLC)/(LumHC−LumLC). Graphical curves were fitted using a nonlinear regression model with a sigmoidal dose response.

HepG2 (NRAS Q61L) = assay: Cell viability assay (CellTiter Glo); conditions: HepG2, 750 cells per well, read-out: BRAF Cytotoxicity (IC50, nM) HEPG2
Description: as §1, §2, §3, §4, §5

[2] = system: OCI-AML-2 (MBNL1-CRAF fusion); assay: Cell viability assay (CellTiter Glo); conditions: OCI-AML-2, 1000 cells per well, read-out: BRAF Cytotoxicity (IC50, nM) OCI-AML-2
Description: as §1, §2, §3, §4, §5

SK-MEL-30 (NRAS Q61K) = assay: Cell viability assay (CellTiter Glo); conditions: SK-MEL-30, 750 cells per well, read-out: BRAF Cytotoxicity (IC50, nM) SK-MEL-30
Description: as §1, §2, §3, §4, §5

[3] = A375, 1000 cells seeded per well, 72 hours, read-out: BRAF Cytotoxicity (IC50, nM) A375 (1000 cells)
[4] = A375, 250 cells seeded per well, 72 hours, read-out: BRAF Cytotoxicity (IC50, nM) A375 (250 cells)
[5] = Homo sapiens, A-375, 72 h, A375, 1000 cells seeded per well, read-out: BRAF Cytotoxicity (IC50, nM) A375 (1000 cells)

| SMILES | IC50 ([1]; Homo sapiens, A-375, 4 h) [nM] | IC50 [1] [nM] | other results |
| --- | --- | --- | --- |
| Cc1cc([C@H](O)C(C)(F)F)ncc1-c1cc2cnc(NC(=O)C3CC3)cc2n(C)c1=O (single isomer, unassigned) [Compound 116, formate] | 78.1 | – | – |
| Cc1cc([C@@H](O)C(C)(F)F)ncc1-c1cc2cnc(NC(=O)C3CC3)cc2n(C)c1=O (single isomer, unassigned) [Compound 117] | 61.3 | – | – |
| CC[C@@H](O)c1cc(C)c(-c2cc3cnc(NC(=O)[C@@H]4CC4(F)F)cc3n(C)c2=O)cn1 (single isomer, unassigned) [Compound 123] | 119 | – | – |
| CC[C@H](O)c1cc(C)c(-c2cc3cnc(NC(=O)[C@@H]4CC4(F)F)cc3n(C)c2=O)cn1 (single isomer, unassigned) [Compound 124] | 63.5 | – | – |
| CCC(O)c1cc(C)c(-c2cc3cnc(NC(=O)C4CC4)cc3n(C)c2=O)c(C)c1 (stereo in doubt) [Compound 118, (R)—N-(3-(4-(1-hydroxypropyl)-2,6-dimethylphenyl)-1-methyl-2-oxo-1,2-dihydro-1,6-naphthyridin-7-yl)cyclopropanecarboxamide] | – | 1250 | – |
| CCC(O)c1cc(C)c(-c2cc3cnc(NC(=O)C4CC4)cc3n(C)c2=O)c(C)c1 (stereo in doubt) [Compound 119, (R)—N-(3-(4-(1-hydroxypropyl)-2,6-dimethylphenyl)-1-methyl-2-oxo-1,2-dihydro-1,6-naphthyridin-7-yl)cyclopropanecarboxamide] | – | 313 | – |
| CCC(O)c1cc(C)c(-c2cc3cnc(NC(=O)C4CC4)cc3n(C)c2=O)c(C)c1 (stereo in doubt) [Compound 120, (S)—N-(3-(4-(1-hydroxypropyl)-2,6-dimethylphenyl)-1-methyl-2-oxo-1,2-dihydro-1,6-naphthyridin-7-yl)cyclopropanecarboxamide] | – | > 10000 | – |
| CCC(O)c1cc(C)c(-c2cc3cnc(NC(=O)C4CC4)cc3n(C)c2=O)c(C)c1 (stereo in doubt) [Compound 121, (S)—N-(3-(4-(1-hydroxypropyl)-2,6-dimethylphenyl)-1-methyl-2-oxo-1,2-dihydro-1,6-naphthyridin-7-yl)cyclopropanecarboxamide] | – | 151 | – |
| CC[C@@H](O)c1cc(C)c(-c2cc3cnc(NC(=O)C4CC4)cc3n(C)c2=O)cn1 [Compound 68, (R)—N-(3-(6-(1-hydroxypropyl)-4-methylpyridin-3-yl)-1-methyl-2-oxo-1,2-dihydro-1,6-naphthyridin-7-yl)cyclopropanecarboxamide] | 249 | – | IC50 ([2]; Homo sapiens, OCI-AML2, 72 h): 2510 nM; IC50 (A375 (BRAF V600E); [5]): 871 nM |
| CC[C@@H](O)c1cc(C)c(-c2cc3cnc(NC(=O)[C@H]4C[C@H]4F)cc3n(C)c2=O)cn1 [Compound 109, (1R,2R)-2-fluoro-N-(3-(6-((R)-1-hydroxypropyl)-4-methylpyridin-3-yl)-1-methyl-2-oxo-1,2-dihydro-1,6-naphthyridin-7-yl)cyclopropane-1-carboxamide] | 76.6 | – | IC50 (A375 (BRAF V600E); [5]): 1630 nM |
| Cc1cc(-n2cccn2)ncc1-c1cc2cnc(NC(=O)C3CC3)cc2n(C)c1=O [Compound 122, N-{1-methyl-3-[4-methyl-6-(pyrazol-1-yl)pyridin-3-yl]-2-oxo-1,6-naphthyridin-7-yl}cyclopropanecarboxamide] | 478 | – | – |
| CCCC(=O)c1cc(C)c(-c2cc3cnc(NC(=O)[C@H]4C[C@H]4F)cc3n(C)c2=O)cn1 [Compound 151, (1R,2R)—N-(3-(6-butyryl-4-methylpyridin-3-yl)-1-methyl-2-oxo-1,2-dihydro-1,6-naphthyridin-7-yl)-2-fluorocyclopropane-1-carboxamide] | 10.4 | – | IC50 (HepG2 (NRAS Q61L); Homo sapiens, HepG2, 120 h): 37.3 nM; IC50 ([2]; Homo sapiens, OCI-AML2, 72 h): 448 nM; IC50 (SK-MEL-30 (NRAS Q61K); Homo sapiens, SK-MEL-30, 120 h): 244 nM |

Further lines, with some results ahead:

| IC50 ([1]; Homo sapiens, A-375, 4 h) [nM] | IC50 [1] [nM] | SMILES | other results |
| --- | --- | --- | --- |
| – | 55.1 | CCCC(O)c1cc(C)c(-c2cc3cnc(NC(=O)C4CC4)cc3n(C)c2=O)cn1 (single isomer, unassigned) [Example S42, Enantiomer A, N-(3-(6-(1-hydroxybutyl)-4-methylpyridin-3-yl)-1-methyl-2-oxo-1,2-dihydro-1,6-naphthyridin-7-yl)cyclopropanecarboxamide] | IC50 (A375 (BRAF V600E); [3]): 930 nM |
| – | 14.7 | CCCC(O)c1cc(C)c(-c2cc3cnc(NC(=O)C4CC4)cc3n(C)c2=O)cn1 (single isomer, unassigned) [Example S42, Enantiomer B, N-(3-(6-(1-hydroxybutyl)-4-methylpyridin-3-yl)-1-methyl-2-oxo-1,2-dihydro-1,6-naphthyridin-7-yl)cyclopropanecarboxamide] | IC50 (A375 (BRAF V600E); [3]): 141 nM |
| – | 73.8 | CCC(O)c1cc(C)c(-c2cc3cnc(NC(=O)[C@H]4CC4(F)F)cc3n(C)c2=O)cn1 (single isomer, unassigned) [Example S49, Isomer A] | IC50 (HepG2 (NRAS Q61L); 120 hours): 2750 nM; IC50 ([2]; 72 hours): > 10000 nM; IC50 (SK-MEL-30 (NRAS Q61K); 120 hours): > 10000 nM |
| – | 373 | CCC(O)c1cc(C)c(-c2cc3cnc(NC(C)=O)cc3n(C)c2=O)cn1 (single isomer, unassigned) [Example S59, Enantiomer B, N-(3-(6-(1-hydroxypropyl)-4-methylpyridin-3-yl)-1-methyl-2-oxo-1,2-dihydro-1,6-naphthyridin-7-yl)acetamide] | – |
| – | 120 | COCC(O)c1cc(C)c(-c2cc3cnc(NC(=O)C4CC4)cc3n(C)c2=O)cn1 (single isomer, unassigned) [Example S60, Enantiomer A, N-(3-{6-[1-hydroxy-2-methoxyethyl]-4-methylpyridin-3-yl}-1-methyl-2-oxo-1,6-naphthyridin-7-yl)cyclopropanecarboxamide] | IC50 (HepG2 (NRAS Q61L); 120 hours): > 10000 nM; IC50 (SK-MEL-30 (NRAS Q61K); 120 hours): > 10000 nM; IC50 (A375 (BRAF V600E); [4]): 5950 nM |
| – | 19 | COCC(O)c1cc(C)c(-c2cc3cnc(NC(=O)C4CC4)cc3n(C)c2=O)cn1 (single isomer, unassigned) [Example S60, Enantiomer B, N-(3-{6-[1-hydroxy-2-methoxyethyl]-4-methylpyridin-3-yl}-1-methyl-2-oxo-1,6-naphthyridin-7-yl)cyclopropanecarboxamide] | IC50 (HepG2 (NRAS Q61L); 120 hours): 225 nM; IC50 (SK-MEL-30 (NRAS Q61K); 120 hours): 3260 nM; IC50 (A375 (BRAF V600E); [4]): 1070 nM |
| – | 23.9 | CCCC(O)c1cc(C)c(-c2cc3cnc(NC(C)=O)cc3n(C)c2=O)cn1 (single isomer, unassigned) [Example S67, Enantiomer B, N-(3-{6-[1-hydroxybutyl]-4-methylpyridin-3-yl}-1-methyl-2-oxo-1,6-naphthyridin-7-yl)acetamide] | – |
| – | 230 | CCC(O)c1cc(C)c(-c2cc3cnc(NC(=O)[C@@H]4C[C@@H]4F)cc3n(C)c2=O)cn1 (single isomer, unassigned; isomer b) [Example S40, Isomer B] | IC50 (A375 (BRAF V600E); [3]): 940 nM |
